Patent US20200270309A1, “MALEIMIDE GROUP-MODIFIED ANGIOGENESIS INHIBITOR HM-1 AND USE THEREOF” (NANJING ANJI BIOLOGICAL TECHNOLOGY CO., LTD, priority 2017, published 2020)
Peptide text beside a SMILES is read from it. * marks the point of attachment. X66 = O=C1C=CC(=O)N1c1cccc(CCCCCCCC(=O)*)c1

Tested on: xylene-induced ear swelling
Assay: Xylene-induced mouse ear swelling
Type: in vivo
Settings: Kunming mice, dose 2 mg/kg, injected once a day for 5 days
Protocol: Kunming mice were taken, a normal saline group was taken as a blank control group, an aspirin group (200 mg/kg) was taken as a positive control group, and X1-X90 administration groups were taken as test groups. The mice were injected once a day for 5 consecutive days. The blank control group was given an equal volume of normal saline. One hour after the last administration, 0.05 mL of xylene was applied to both sides of the right ear of each mouse to cause inflammation, while no drug was applied to the left ear as a normal ear. Two hours later, the mice were put to death by dislocation. Two ears were cut along the auricle. Ear pieces were taken with a puncher and weighed, and the swelling degree and the swelling rate were calculated. Swelling degree=right ear piece weight-left ear piece weight, swelling rate=(swelling degree/left ear piece weight)*100%. Statistical t-test was conducted on the experimental results. *P<0.05 indicates significant difference, and **P<0.01 indicates extremely significant difference.

C[C@H](NC(=O)CNC(=O)[C@H](CCCNC(=N)N)NC(=O)CCCCCCCc1cccc(N2C(=O)C=CC2=O)c1)C(=O)N[C@@H](CC(=O)O)C(=O)N[C@@H](CCCNC(=N)N)C(=O)N[C@@H](C)C(=O)NCC(=O)NCC(=O)NCC(=O)NCC(=O)N[C@@H](CCCNC(=N)N)C(=O)NCC(=O)N[C@@H](CC(=O)O)C(=O)O [X31] (X66-RGADRAGGGGRGD-OH)
Swelling degree (right minus left ear piece weight 2 h after xylene): 3.16 ± 0.55 mg
Inhibition rate (%) (xylene-induced ear swelling): 16.85%
